Source: patent publication US20060140872A1, “Novel signaling pathway for the production of inglammatory pain and neuropathy” (KOWA CO., LTD., priority 2003, published 2006)

Tested on: allergic contact dermatitis (picryl chloride-induced dermatitis)
Assay: Mouse model of picryl chloride-induced dermatitis (auricle thickness)
Type: in vivo, mouse (female BALB/C)
Conditions: applied on left auricle 1 hour before induction; thickness 24 hours after induction; dose not given; FIG. 2

In the case of `COc1cccc(-c2cc(=O)c3ccccc3o2)c1N` [PD98059, 2-(2-amino-3-methoxyphenyl)-4-oxo-4H-[1]benzopyran], the “suppressive action for allergic contact dermatitis (difference in auricle thickness)” value is reported as “exhibited suppressive action for allergic contact dermatitis”.
